Laboratory results from patent US6388109B1, “14,15-cyclopropano steroids of the 19-norandrostane series, method for the production thereof and pharmaceutical preparations containing said compounds” (Jenapharm GmbH & Co. KG, priority 1998, dated 2002).

Key:
[1] = system: pregnancy maintenance (gestagenic action); test: pregnancy maintenance test in mice; format: in vivo
Text: Another example is the compound of general formula I—in which R1 and R2 in each case represent a hydrogen atom, R3 represents an α-position hydrogen atom, R4 stands for a β-position hydroxy group, and the cyclopropane ring is in α-position—17β-hydroxy-14,α,15α-methylenestr-4-en-3-one (J 1129), which in the same test has an approximately 50-fold stronger gestagenic action in comparison to the reference substance norethisterone acetate.

[2] = molecular target: T1, progesterone receptor of the rabbit uterus (Oryctolagus cuniculus, UniProt P06186); test: binding to the progesterone receptor of the rabbit uterus (reference substance: progesterone)
T1 construct: progesterone receptor of the rabbit uterus; from tissue; host or cells: rabbit uterus
T1 sequence (P06186 1-930): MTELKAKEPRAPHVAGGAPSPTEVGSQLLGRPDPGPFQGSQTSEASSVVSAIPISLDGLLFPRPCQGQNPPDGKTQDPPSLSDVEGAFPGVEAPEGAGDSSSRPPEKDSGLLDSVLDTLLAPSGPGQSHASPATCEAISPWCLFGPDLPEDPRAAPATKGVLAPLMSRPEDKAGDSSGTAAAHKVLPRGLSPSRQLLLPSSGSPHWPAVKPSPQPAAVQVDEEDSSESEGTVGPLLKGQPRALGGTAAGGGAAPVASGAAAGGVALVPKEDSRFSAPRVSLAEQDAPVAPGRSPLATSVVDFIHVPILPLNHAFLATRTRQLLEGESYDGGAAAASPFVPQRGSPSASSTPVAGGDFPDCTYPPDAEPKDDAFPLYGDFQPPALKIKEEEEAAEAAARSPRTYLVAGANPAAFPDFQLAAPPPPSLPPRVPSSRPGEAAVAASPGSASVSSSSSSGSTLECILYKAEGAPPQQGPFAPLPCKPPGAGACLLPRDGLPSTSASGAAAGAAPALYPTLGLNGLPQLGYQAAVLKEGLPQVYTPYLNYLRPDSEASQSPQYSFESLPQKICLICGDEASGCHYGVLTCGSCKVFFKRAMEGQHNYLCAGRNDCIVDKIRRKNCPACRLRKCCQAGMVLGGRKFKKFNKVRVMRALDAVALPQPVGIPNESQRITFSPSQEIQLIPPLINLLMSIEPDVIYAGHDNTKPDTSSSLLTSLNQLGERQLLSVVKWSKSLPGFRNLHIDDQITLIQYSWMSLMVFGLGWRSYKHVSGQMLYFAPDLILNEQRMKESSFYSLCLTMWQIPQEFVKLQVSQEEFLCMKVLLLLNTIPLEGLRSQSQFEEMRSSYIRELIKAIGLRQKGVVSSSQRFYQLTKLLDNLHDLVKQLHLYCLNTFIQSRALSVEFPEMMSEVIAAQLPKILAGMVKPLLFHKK
Text: Another example is the compound of general formula I—in which R1 and R2 in each case represent a hydrogen atom, R3 means an α-position chloromethyl group, R4 stands for a β-position hydroxy group, and the cyclopropane ring is in β-position—17α-chloromethyl-17β-hydroxy-14β,15β-methylenestr-4-en-3-one (Code J 1364), which binds with 710±80% to the progesterone receptor of the rabbit uterus (reference substance: progesterone).

[3] = molecular target: T2, androgen receptor of the rat prostate (Rattus norvegicus, UniProt P15207); test: binding to the androgen receptor of the rat prostate (reference substance: R 1881)
T2 construct: androgen receptor of the rat prostate; from tissue; host or cells: rat prostate
T2 sequence (P15207 1-902): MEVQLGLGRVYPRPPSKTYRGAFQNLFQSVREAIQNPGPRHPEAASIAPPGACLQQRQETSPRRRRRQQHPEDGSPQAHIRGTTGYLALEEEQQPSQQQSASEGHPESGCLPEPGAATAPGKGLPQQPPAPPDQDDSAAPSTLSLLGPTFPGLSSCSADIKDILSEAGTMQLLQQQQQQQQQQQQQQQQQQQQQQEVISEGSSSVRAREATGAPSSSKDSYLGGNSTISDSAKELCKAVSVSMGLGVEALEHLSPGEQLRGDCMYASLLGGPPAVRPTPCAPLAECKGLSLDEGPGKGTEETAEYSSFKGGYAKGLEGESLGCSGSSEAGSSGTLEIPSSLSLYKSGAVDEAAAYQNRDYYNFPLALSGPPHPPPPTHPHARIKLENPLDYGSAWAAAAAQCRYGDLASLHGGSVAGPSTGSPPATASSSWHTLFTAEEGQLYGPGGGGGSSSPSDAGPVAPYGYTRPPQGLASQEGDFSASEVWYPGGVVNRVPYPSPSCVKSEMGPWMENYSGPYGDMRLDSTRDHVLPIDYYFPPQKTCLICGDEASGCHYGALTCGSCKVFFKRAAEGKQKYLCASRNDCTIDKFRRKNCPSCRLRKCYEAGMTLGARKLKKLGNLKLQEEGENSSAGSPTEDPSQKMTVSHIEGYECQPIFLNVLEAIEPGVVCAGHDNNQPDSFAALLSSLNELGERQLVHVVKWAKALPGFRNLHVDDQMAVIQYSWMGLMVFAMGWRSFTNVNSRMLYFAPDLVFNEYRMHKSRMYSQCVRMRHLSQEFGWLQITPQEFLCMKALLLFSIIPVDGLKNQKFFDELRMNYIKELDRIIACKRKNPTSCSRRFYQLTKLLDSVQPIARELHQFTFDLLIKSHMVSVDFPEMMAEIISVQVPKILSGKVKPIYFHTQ

Structure (SMILES)	gestagenic action in comparison to the reference substance norethisterone acetate ([1]; pregnancy maintenance test, stronger than norethisterone acetate)	binding to the progesterone receptor [2]	binding to the androgen receptor ([3]; reference substance: 17β-hydroxy-17α-methyl-estra-4,9,11-trien-3-one (R 1881))	effectiveness in the pregnancy maintenance test compared with norethisterone acetate ([1]; reference gestagen norethisterone acetate)	affinity to the androgen receptor (in words) ([3]; reference substance: R 1881)
C[C@]12CC[C@H]3[C@@H](CCC4=CC(=O)CC[C@@H]43)[C@@]13C[C@H]3C[C@@H]2O [J 1129, 17β-Hydroxy-14α,15α-methylenestr-4-en-3-one]	approximately 50 fold	42±5%	59±7%	–	–
COC[C@]1(O)C[C@H]2C[C@]23[C@@H]2CCC4=CC(=O)CC[C@@H]4[C@H]2CC[C@]13C [J 1222, 17β-Hydroxy-17α-(methoxymethyl)-14β,15β-methylenestr-4-en-3-one]	–	52±4%	–	just as effective	virtually no affinity
CC12CCC3C4CCC(=O)C=C4CCC3C13CC3CC2(O)CCl (stereo not drawn) [J 1364, 17α-Chloromethyl-17β-hydroxy-14β,15β-methylenestr-4-en-3-one]	–	710±80%	–	–	–
